# Columns and labels:
# Assay in all cases: Inhibition of tumor cell proliferation (CTG, 6 days)
# Type in all cases: cell-based, human
# MDA-MB-468 cells = conditions: FIG. 5
# Description: (§1) All the cells were those with high expression of Trop2 antigens. Trodelvy was the tradename of sacituzumab govitecan injector. Sacituzumab was an outsourced anti-Trop2 antibody. All cell lines were cultured in the complete medium at 37° C. with 5% CO2. Cells in the logarithmic growth phase were harvested and then counted using a […], and the cell viability was tested by the trypan blue rejection method to ensure that the cell viability was above 90%. […] The cells in the 96-well plate were cultured at 37° C. with 5% CO2. […] The cells from the dosed 96-well plate were cultured at 37° C. with 5% CO2 for another 6 days, followed by CTG analysis (CTG, a CellTiter-Glo kit, was a homogeneous cell viability assay for quantifying ATP to determine the viability of cultured cells). The CTG reagent was thawed, and the cell plate was equilibrated to room temperature for 30 min. 100 μL of CTG solution was added per well. The cells were shaken on an orbital shaker for 5 min for lysis. The cell plate was treated at room temperature for 20 min to stabilize the cold light signal. The cold light values were read to collect data. […] [formula]
# NCI-H1650 cells = conditions: FIG. 7
# Description: as §1
# NCI-H596 cells = conditions: FIG. 8
# Description: as §1
# SNU216 cells = conditions: FIG. 6
# Description: as §1
substance,measurement,setting,value
Trodelvy,efficacy (in words),MDA-MB-468 cells,superior to Sacituzumab
same,efficacy (in words),NCI-H1650 cells,superior to Sacituzumab
same,efficacy (in words),NCI-H596 cells,certain efficacy
same,efficacy (in words),SNU216 cells,superior to Sacituzumab

# From patent US20240350650A1, “LINKER AND CONJUGATE THEREFOR” (BEIJING HOPE PHARMACEUTICAL CO.LTD., priority 2021, published 2024)
